Key:
[1] = Catalytic activity of GPx mimetics: reduction of hydrogen peroxide with benzyl thiol
Method: (§1) Catalytic activity of the compounds described herein can be determined via assessing the reduction of tert-butyl hydroxyperoxide and hydrogen peroxide with benzyl thiol for example as described in Example 1, herein. According to this embodiment, catalytic activity was compared by means of reaction half-life (t1/2), where the value reflects the time required to oxidize half of the thiol to its disulfide.
(§2) Diselenide 17, selenide 20 and spirodioxyselenurane 25 were prepared by literature procedures. NMR spectra were run in CDCl3 unless otherwise indicated. Chemical shifts for ^77Se and ^125Te NMR spectra are reported relative to dimethyl selenide and dimethyl telluride, respectively (δ 0.00). The spectra were recorded by using diphenyl diselenide in CDCl3 (δ 463 ppm) or selenium dioxide in D2O (δ 1302.6 ppm) for ^77Se NMR spectra, and diphenyl ditelluride in CDCl3 (δ 420.8 ppm) for ^125Te NMR spectra. Benzyl thiol was distilled prior to use and the concentrations of tert-butyl hydroperoxide and hydrogen peroxide were determined by iodometric analysis.
(§3) Glassware used in the measurement of catalytic activity (Example 9) was washed only with water followed by acetone, and was flame-dried prior to use. Contamination with traces of detergent or alkali produced abnormal kinetic results.
(§4) Catalytic activity of some of the compounds synthesized as described the foregoing Examples are described in the tables below, where the activity measured is in terms of comparability to selenoenzyme glutathione peroxidase. Reactions were performed with BnSH (0.029 M), the catalyst (0.0029 M) and either 56% TBHP (0.038 M), 38% TBHP (0.023 M) or 29% H2O2(0.040 M) in CH2Cl2-MeOH (95:5) at 18° C., except for entries 7, 8, 17 and 18, where the solvent was CH2Cl2-MeOH (4:1).

[2] = Catalytic activity of GPx mimetics: reduction of tert-butyl hydroperoxide with benzyl thiol
Method: as §1, §2, §3, §4

[3] = Catalytic activity of GPx mimetics: overall comparison of catalysts in words (both oxidants); details: reduction of peroxides with BnSH; for catalytic activity compared to their selenium analogs 14 and 16: fastest reaction rates
Source text: as §1, §4
In general, hydrogen peroxide was reduced faster than tert-butyl hydroperoxide in the presence of the selenium-based catalysts.

SMILES	t1/2 (h), time required to oxidize half of the thiol to its disulfide [1] [h]	t1/2 (h), time required to oxidize half of the thiol to its disulfide [2] [h]	catalytic activity compared to the parent cyclic seleninate ester 14 and spirodioxyselenurane 16 [3]	melting point [°C]	catalytic activity compared to their selenium analogs 14 and 16 [3]
C1CO[Se]2(C1)CCCO2 [Compound 16, reference compound]	0.2	–	–	–	–
c1ccc2c(c1)CO[Se]21OCc2ccccc21 [Compound 24, Spirodioxyselenurane]	5.5	62	inferior catalysts	–	–
O=C1O[Se](=O)c2ccccc21 (stereo not drawn) [Compound 22, Benzo-3-oxo-1,2-Oxaselenolane Se-Oxide]	73	252	inferior catalysts	–	–
COc1ccc2c(c1)CO[Se]2=O (stereo not drawn) [Compound 91, 5-metboxybenzo-1,2-oxaselenolane Se-oxide]	28	81	–	–	–
O=[Se]1OCc2cc(F)ccc21 (stereo not drawn) [Compound 93, 5-fluorobenzo-1,2-oxaselenolane Se-oxide]	39	238	–	141 to 142	–
O=[Se]1OCc2ccccc21 (stereo not drawn) [Compound 19, Benzo-1,2-oxaselenolane Se-Oxide]	18	162	inferior catalysts	–	–
O=[Te]1CCCO1 [Compound 27, 1,2-Oxatellurolane Te-oxide]	–	–	–	–	superior catalysts
Fc1ccc2c(c1)CO[Se]21OCc2cc(F)ccc21 [Compound 127, spirodioxyselenurane]	16	181	–	189 to 191	–
O=[Se]1CCCO1 (stereo not drawn) [Compound 14, reference compound]	18	–	–	–	–
C1CO[Te]2(C1)CCCO2 [Compound 29, Spirodioxytellurane]	–	–	–	–	superior catalysts
O=C1O[Se]2(OC(=O)c3ccccc32)c2ccccc21 [Compound 25, Spirodioxyselenurane, reference compound]	35	113	inferior catalysts	–	–
COc1ccc2c(c1)CO[Se]21OCc2cc(OC)ccc21 [Compound 126, spirodioxyselenurane]	3.3	39	–	171 to 173	–

— patent US7923442B2, “Glutathione peroxidase mimetics and uses thereof” (UTI Limited Partnership, priority 2005, dated 2011)
